In general, IC50 refers to the point on the concentration scale where inhibition reaches its midpoint.

The structures appear in SMILES notation. A value given as a limit tells only on which side of the number the result lay.

For one assay, the target named is T1, HCV NS5B (Hepatitis C virus genotype 1b, UniProt Q9WMX2).
T1 construct: fusion protein, of which the carboxyl terminal 21 amino acids were removed to enhance its solubility; His tag (GSHHHHHH); made in house; host or cells: E. coli
As to the kind of experiment: Inhibition of viral RNA-dependent RNA polymerase (RdRp), in vitro biochemical assay. On the set-up: species or system HCV genotype 1b virus (BB7). To be noted: HCV NS5B RdRp, BB7; reported as range class; read-out: HCV pol-BB7 IC50. Summed up:
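IC50 values are the concentrations that halve in vitro RNA synthesis by HCV NS5B polymerase. The enzyme was a C-terminally truncated (Δ21), His-tagged genotype 1b (BB7 consensus) protein purified from E. coli.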

Assay [1] has as its system HCV replicon (BB7 sequence) in Huh-7-Clone A cells. As to the kind of experiment: HCV replicon assay: ELISA of NS5A protein in replicon-containing cells (Inhibition of Viral RNA Replication). Format: cell-based. The settings on record: Hepatitis C virus; HCV replicon, range of EC50; read-out: Replicon. In outline:
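EC50 taken from an 8-point serially diluted dose curve, with NS5A level as read-out: fixed cells probed with primary monoclonal and HRP-conjugated secondary, TMB developed 30 min, OD 650 nm. Compound exposure 72 h in Huh-7-Clone A replicon cells (BB7 sequence).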

Regarding `CNC(=O)c1c(-c2ccc(F)cc2)oc2cc(N(Cc3nsc(Cl)n3)S(C)(=O)=O)c(OC(C)C)cc12` [Example 234, 6-[(5-Chloro-[1,2,4]thiadiazol-3-ylmethyl)-methanesulfonyl-amino]-2-(4-fluoro-phenyl)-5-isopropoxy-benzofuran-3-carboxylic acid methylamide], the IC50 at HCV NS5B is at most 0.5 µM. In addition, the EC50 in assay [1] is below 10 µM.
The like results for `CNC(=O)c1c(-c2ccc(F)cc2)oc2cc(Nc3c(C)noc3C)c(OC(C)C)cc12` [Example 235, 6-(3,5-Dimethyl-isoxazol-4-ylamino)-2-(4-fluoro-phenyl)-5-isopropoxy-benzofuran-3-carboxylic acid methylamide] were, in that order, 5 to 30 µM and above 30 µM.
The like results for `CNC(=O)c1c(-c2ccc(F)cc2)oc2cc(-c3cccnc3)c(OC)cc12` [Example 236, 2-(4-Fluoro-phenyl)-5-methoxy-6-pyridin-3-yl-benzofuran-3-carboxylic acid methylamide] were, in that order, at most 0.5 µM and below 1 µM.
The like results for `CNC(=O)c1c(-c2ccc(F)cc2)oc2cc(CN(C)C)c(OC(C)C)cc12` [Example 237, 6-Dimethylaminomethyl-2-(4-fluoro-phenyl)-5-isopropoxybenzofuran 3-carboxylic acid methylamide] were, in that order, 5 to 30 µM and below 30 µM.
As to `CNC(=O)c1c(-c2ccc(F)cc2)oc2cc(C(O)C(C)C)c(OC(C)C)cc12` (stereo not drawn) [Example 238, 2-(4-Fluoro-phenyl)-6-(1-hydroxy-2-methyl-propyl)-5-isopropoxy-benzofuran-3-carboxylic acid methylamide], the IC50 at HCV NS5B was at most 0.5 µM. For the same compound, the EC50 in assay [1] was below 1 µM.
The like results for `CNC(=O)c1c(-c2ccc(F)cc2)oc2cc(-c3cn[nH]c3)c(OC(C)C)cc12` [Example 239, 2-(4-Fluoro-phenyl)-5-isopropoxy-6-(1H-pyrazol-4-yl)-benzofuran-3-carboxylic acid methylamide] were, in that order, 5 to 30 µM and below 10 µM.
The like results for `CNC(=O)c1c(-c2ccc(F)cc2)oc2cc(N(CCOC)S(C)(=O)=O)c(OC)cc12` [Example 240, 2-(4-Fluoro-phenyl)-6-[methanesulfonyl-(2-methoxy-ethyl)-amino]-5-methoxy-benzofuran-3-carboxylic acid methylamide] were, in that order, at most 0.5 µM and below 1 µM.
`CNC(=O)c1c(-c2ccc(F)cc2)oc2cc(-c3cc(C4CC4)no3)c(OC(C)C)cc12` [Example 241, 6-(3-Cyclopropyl-isoxazol-5-yl)-2-(4-fluoro-phenyl)-5-isopropoxy-benzofuran-3-carboxylic acid methylamide]: on HCV NS5B, the concentration for half-maximal inhibition (IC50) lay within 0.5 to 5 µM. In addition, in assay [1], the EC50 is below 10 µM.
The like results for `CNC(=O)c1c(-c2ccc(F)cc2)oc2cc(-c3cc(COC)no3)c(OC(C)C)cc12` [Example 242, 2-(4-Fluoro-phenyl)-5-isopropoxy-6-(3-methoxymethyl-isoxazol-5-yl)-benzofuran-3-carboxylic acid methylamide] were, in that order, 0.5 to 5 µM and 30 µM.
On the same counts, the results for `CNC(=O)c1c(-c2ccc(F)cc2)oc2cc(NS(C)(=O)=O)ccc12` [Example 243, 2-(4-Fluoro-phenyl)-6-methanesulfonylamino-benzofuran-3-carboxylic acid methylamide] are 0.5 to 5 µM and below 10 µM.
On to `CNC(=O)c1c(-c2ccc(F)cc2)oc2cc(-c3ncc[nH]3)c(OC(C)C)cc12` [Example 244, 2-(4-Fluoro-phenyl)-6-(1H-imidazol-2-yl)-5-isopropoxy-benzofuran-3-carboxylic acid methylamide], for which, on HCV NS5B, the IC50 was at most 0.5 µM. In assay [1], the EC50 is below 1 µM.
The like results for `CNC(=O)c1c(-c2ccc(F)cc2)oc2cc(-c3cc(C)nn3C)c(OC(C)C)cc12` [Example 245, 6-(2,5-Dimethyl-2H-pyrazol-3-y1)-2-(4-fluoro-phenyl)-5-isopropoxybenzofuran 3-carboxylic acid methylamide] were, in that order, 0.5 to 5 µM and below 10 µM.

Source of the values: patent US7265152B2 (ViroPharma Incorporated, priority 2002, dated 2007).
